Our source for the Bliss interaction score values is the supplement of paper PMC10627819.

What all share (test): Bliss interaction score (quartile over a dose matrix) (fitness difference); higher = more antagonism (negative = synergy)
Test [1] deals with S. pneumoniae D39V. The essentials: (§1)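 The Bliss score is observed minus expected fitness, where expected fitness is the product of the single-drug fitness values inferred from the combination data. Fitness is the OD595 at the onset of stationary phase over the plate's robust no-drug mean, capped at 1. Scores are summarised by quartiles over technical, biological and donor/recipient replicates.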

Test [2] has as its system S. aureus Newman. The essentials:
as §1

Test [3] deals with S. aureus DSM 20231. The essentials:
as §1

Test [4] has as its system B. subtilis 168. The essentials:
as §1
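Also: first quartile when negative (synergy) and third quartile when positive (antagonism).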

Take `CC(=O)Oc1ccccc1C(=O)O` [Acetylsalicylicacid] + CCCCCCCCCC(=O)N[C@@H]1[C@H]([C@@H]([C@H](O[C@H]1OC2=C3C=C4C=C2OC5=C(C=C(C=C5)[C@H]([C@H]6C(=O)N[C@@H](C7=C(C(=CC(=C7)O)OC8[C@H]([C@H]([C@@H]([C@H](O8)CO)O)O)O)C9=C(C=CC(=C9)[C@H](C(=O)N6)NC(=O)[C@@H]4NC(=O)[C@@H]1C2=CC(=CC(=C2)OC2=C(C=CC(=C2)[C@H](C(=O)N[C@H](CC2=CC(=C(O3)C=C2)Cl)C(=O)N1)N)O)O)O)C(=O)O)O[C@H]1[C@@H]([C@H]([C@@H]([C@H](O1)CO)O)O)NC(=O)C)Cl)CO)O)O [Teicoplanin]: the Bliss interaction score in test [1] (main component drawn) was -0.045; in test [2] (main component drawn) it was -0.0656; in test [3] (main component drawn), 0.0851; in test [4] (main component drawn), 0.206.
On to `CC(=O)Oc1ccccc1C(=O)O` [Acetylsalicylicacid] + CO/N=C(\C(=O)N[C@@H]1C(=O)N2C(C(=O)O)=C(COC(C)=O)CS[C@H]12)c1csc(N)n1 [Cefotaxime], for which the Bliss interaction score in test [1] is 0.138; in test [2], -0.0434; in test [3] it was -0.1; in test [4] it was 0.172.
For `N#CC(C#N)=NNc1cccc(Cl)c1` [CCCP] + N[C@@H]1CONC1=O [CycloserineD], in that order: 0.102, -0.0487, -0.0883 and 0.0617.
For `N#CC(C#N)=NNc1cccc(Cl)c1` [CCCP] + C[C@H]1c2cccc(O)c2C(=O)C2=C(O)[C@]3(O)C(=O)C(C(N)=O)=C(O)[C@@H](N(C)C)[C@@H]3[C@@H](O)[C@@H]21 [Doxycycline], in that order: 0.047, 0.0768, -0.0215 and -0.0353.
For `CC(=O)Oc1ccccc1C(=O)O` [Acetylsalicylicacid] + CC[C@H]1OC(=O)[C@H](C)[C@@H](O[C@H]2C[C@@](C)(OC)[C@@H](O)[C@H](C)O2)[C@H](C)[C@@H](O[C@@H]2O[C@H](C)C[C@H](N(C)C)[C@H]2O)[C@](C)(O)C[C@@H](C)C(=O)[C@H](C)[C@@H](O)[C@]1(C)O [Erythromycin], in that order: 0.0745, 0.144, 0.1 and 0.184.
On to `CC(=O)Oc1ccccc1C(=O)O` [Acetylsalicylicacid] + CCC(C)C1C(=O)NC(=C)C(=O)NC(C(=O)NC(CSCC(C(=O)N1)NC(=O)/C(=C/C)/NC(=O)C(C(C)CC)N)C(=O)NC2C(SCC(NC(=O)CNC(=O)C3CCCN3C2=O)C(=O)NC(CCCCN)C(=O)NC4C(SCC(NC(=O)CNC(=O)C(NC(=O)C(NC(=O)C(NC(=O)CNC4=O)C)CC(C)C)CCSC)C(=O)NC(CC(=O)N)C(=O)NC(CCSC)C(=O)NC(CCCCN)C(=O)NC5C(SCC6C(=O)NC(C(=O)NC(CSC(C(C(=O)N6)NC(=O)C(NC5=O)C)C)C(=O)NC(CO)C(=O)NC(C(C)CC)C(=O)NC(CC7=CN=CN7)C(=O)NC(C(C)C)C(=O)NC(=C)C(=O)NC(CCCCN)C(=O)O)CC8=CN=CN8)C)C)C)CC(C)C [Nisin], for which the Bliss interaction score in test [1] (main component drawn) was -0.0424; in test [2] (main component drawn), -0.0598; in test [3] (main component drawn) it was -0.113; in test [4] (main component drawn), -0.0969.
`CN(C)[C@@H]1C(O)=C(C(N)=O)C(=O)[C@@]2(O)C(O)=C3C(=O)c4c(O)ccc(Cl)c4[C@@](C)(O)[C@H]3C[C@@H]12` [Clortetracycline] + CN(C)C(=O)C(CCN1CCC(O)(c2ccc(Cl)cc2)CC1)(c1ccccc1)c1ccccc1 [Loperamide]: the Bliss interaction score in test [1] is 0.0856; in test [2], -0.0458; in test [3], 0.0792; in test [4], -0.221.
In the same order, the values of `COc1ccc(C[C@H](N)C(=O)N[C@H]2[C@@H](O)[C@H](n3cnc4c(N(C)C)ncnc43)O[C@@H]2CO)cc1` [Puromycin] + CC[C@H]1OC(=O)[C@H](C)C(=O)[C@H](C)[C@@H](O[C@@H]2O[C@H](C)C[C@H](N(C)C)[C@H]2O)[C@](C)(OC)C[C@@H](C)C(=O)[C@H](C)[C@H]2N(CCCCn3cnc(-c4cccnc4)c3)C(=O)O[C@]12C [Telithromycin] are -0.0651, -0.0571, 0.045 and 0.0276.
For `CC(=O)Oc1ccccc1C(=O)O` [Acetylsalicylicacid] + Cc1onc(-c2ccccc2)c1C(=O)N[C@@H]1C(=O)N2[C@@H]1SC(C)(C)[C@@H]2C(=O)O [Oxacillin], in that order: 0.0623, 0.0916, 0.113 and 0.0506.
In the same order, the values of `N#CC(C#N)=NNc1cccc(Cl)c1` [CCCP] + CN(C)c1cc(NC(=O)CNC(C)(C)C)c(O)c2c1C[C@H]1C[C@H]3[C@H](N(C)C)C(O)=C(C(N)=O)C(=O)[C@@]3(O)C(O)=C1C2=O [Tigecycline] are 0.102, -0.0359, 0.0272 and -0.0512.
Consider `N#CC(C#N)=NNc1cccc(Cl)c1` [CCCP] + CCC[C@@H]1C[C@@H](C(=O)N[C@@H]([C@H]2O[C@H](SC)[C@H](O)[C@@H](O)[C@H]2O)[C@H](C)Cl)N(C)C1 [Clindamycin], for which the Bliss interaction score in test [1] is -0.138; in test [2] it was 0.0938; in test [3], 0.0216; in test [4] it was -0.0426.
In the same order, the values of `CC1(C)S[C@@H]2[C@H](NC(=O)Cc3ccccc3)C(=O)N2[C@H]1C(=O)O` [PenicillinG] + COc1cc(Cc2cnc(N)nc2N)cc(OC)c1OC [Trimethoprim] are 0.101, -0.0822, -0.0299 and -0.131.
For `N#CC(C#N)=NNc1cccc(Cl)c1` [CCCP] + Cc1onc(-c2ccccc2)c1C(=O)N[C@@H]1C(=O)N2[C@@H]1SC(C)(C)[C@@H]2C(=O)O [Oxacillin], the Bliss interaction score is 0.12 in test [1], -0.0755 in test [2], 0.0876 in test [3] and 0.0476 in test [4].
Consider `N#CC(C#N)=NNc1cccc(Cl)c1` [CCCP] + COc1c(N2C[C@@H]3CCCN[C@@H]3C2)c(F)cc2c(=O)c(C(=O)O)cn(C3CC3)c12 [Moxifloxacin], for which the Bliss interaction score is 0.0433 in test [1], -0.0686 in test [2], -0.0373 in test [3] and 0.0233 in test [4].
In the same order, the values of `CO/N=C(\C(=O)N[C@@H]1C(=O)N2C(C(=O)O)=C(COC(C)=O)CS[C@H]12)c1csc(N)n1` [Cefotaxime] + O=C(O)c1cn(C2CC2)c2cc(N3CCNCC3)c(F)cc2c1=O [Ciprofloxacin] are 0.154, 0.0294, -0.0413 and -0.144.
